Laboratory results as given in patent US8980888B2, “Pyrazole derivative” (Mochida Pharmaceutical Co., Ltd., priority 2013, dated 2015).

The compounds below were run against T1, Human PDE10 (Homo sapiens, UniProt Q9Y233) (assay: Human PDE10 inhibitory effect (IMAP TR-FRET enzyme inhibition assay)). Conditions: PDE10 inhibitory activity, cAMP substrate.
T1 construct: purchased BPA Bioscience (so in the source)
T1 sequence (Q9Y233 whole entry): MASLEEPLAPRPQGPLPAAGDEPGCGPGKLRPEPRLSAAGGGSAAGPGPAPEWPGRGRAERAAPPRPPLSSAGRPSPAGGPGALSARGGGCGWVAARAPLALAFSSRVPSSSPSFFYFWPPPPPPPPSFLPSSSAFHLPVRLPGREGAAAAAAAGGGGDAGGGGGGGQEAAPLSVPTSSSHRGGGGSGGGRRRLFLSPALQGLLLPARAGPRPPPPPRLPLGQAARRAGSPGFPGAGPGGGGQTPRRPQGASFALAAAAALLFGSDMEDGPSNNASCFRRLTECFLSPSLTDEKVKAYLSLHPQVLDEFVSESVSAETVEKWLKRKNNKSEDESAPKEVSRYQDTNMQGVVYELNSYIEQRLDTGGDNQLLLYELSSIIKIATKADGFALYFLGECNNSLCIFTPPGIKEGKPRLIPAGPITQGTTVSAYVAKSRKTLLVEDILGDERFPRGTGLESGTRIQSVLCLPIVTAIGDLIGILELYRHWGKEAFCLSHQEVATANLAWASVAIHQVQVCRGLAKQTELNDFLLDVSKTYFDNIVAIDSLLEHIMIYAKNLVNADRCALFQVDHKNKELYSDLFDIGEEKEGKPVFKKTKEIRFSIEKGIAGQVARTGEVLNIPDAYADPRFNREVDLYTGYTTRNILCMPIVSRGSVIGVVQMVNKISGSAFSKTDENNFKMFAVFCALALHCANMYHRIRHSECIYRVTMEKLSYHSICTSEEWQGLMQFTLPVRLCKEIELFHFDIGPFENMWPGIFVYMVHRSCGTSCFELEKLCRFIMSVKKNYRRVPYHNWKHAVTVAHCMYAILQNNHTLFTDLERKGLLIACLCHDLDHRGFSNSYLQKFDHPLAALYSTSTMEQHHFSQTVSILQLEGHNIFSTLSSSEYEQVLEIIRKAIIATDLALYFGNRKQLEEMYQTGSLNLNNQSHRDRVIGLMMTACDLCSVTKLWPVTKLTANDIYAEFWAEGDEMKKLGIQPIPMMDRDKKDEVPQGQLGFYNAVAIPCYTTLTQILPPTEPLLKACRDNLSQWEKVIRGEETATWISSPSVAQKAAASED
Type: biochemical
Method: (Evaluation of Enzyme Inhibitory Activity: Human PDE10 Inhibitory Effect)
IMAP TR-FRET Phosphodiersterase Evaluation Assay Kit (Molecular Device) was used for the measurement. Ten μL of a diluted test compound having each concentration and 5 μL of the enzyme PDE10 (BPA Bioscience) that had been diluted to 2 ng/mL with 1×IMAP Reaction Buffer (prepared with 5× included with the kit, 10 mM Tris-HCl, pH=7.2, 10 mM MgCl2, 0.05% NaN3, and 0.1% BSA) containing 0.1% BSA were added to a 384-well plate (Corning). The obtained mixture was then pre-incubated at room temperature for 5 minutes. Thereafter, 5 μL of cAMP substrate solution which was included with the kit and diluted to 400 nM with 1×IMAP Reaction Buffer containing 0.1% BSA, was added to the reaction solution, and the obtained mixture was reacted at room temperature for 60 minutes. Thereafter, 60 μL of an IMAP TR-FRET Binding solution included with the kit was further added to the reaction solution, and the obtained mixture was then left for 3 hours or more. Subsequently, using ARVO SX (PerkinElmer), the fluorescent intensity of Terbium (Emission=490 nm) and TR-FRET (Emission=520 nm) in the reaction solution were measured at an excitation wavelength of 340 nm, so as to calculate the amount of the generated 5′-AMP. The count of a well to which a solvent had been added instead of the test compound was set at 0%, and the count of a well to which the enzyme PDE10 had not been added was set at 100%. Thus, the inhibitory activity of each test compound was calculated.
The PDE10 inhibitory activity of the test compound was indicated with an IC50 value. […] The test compounds are shown in Table 3 (Table 3-1 and Table 3-2).
Work on `Cn1ncc(-c2cccc(C(F)(F)F)n2)c1C(=O)Nc1cc2nc(-c3ccccc3)nn2cc1F` [Example 3.10, N-(6-fluoro-2-phenyl-[1,2,4]triazolo[1,5-a]pyridin-7-yl)-1-methyl-4-(6-(trifluoromethyl)pyridin-2-yl)-1H-pyrazole-5-carboxamide] yielded an IC50 of under 5 nM. In the case of `C[C@@H]1CN(c2nc3cc(NC(=O)c4c(-c5nc(C(F)F)c(Cl)s5)cnn4C)ccn3n2)C[C@H](C)O1` [Example 4.36, 4-(5-chloro-4-(difluoromethyl)thiazol-2-yl)-N-(2-((2S,6R)-2,6-dimethylmorpholino)-[1,2,4]triazolo[1,5-a]pyridin-7-yl)-1-methyl-1H-pyrazole-5-carboxamide], the IC50 is reported as 5 to 100 nM. With `Cc1cc(-c2cnn(C)c2C(=O)Nc2cc3nc(-c4ccccc4)nn3cc2F)nc(C)n1` [Example 3.30, 4-(2,6-dimethylpyrimidin-4-yl)-N-(6-fluoro-2-phenyl-[1,2,4]triazolo[1,5-a]pyridin-7-yl)-1-methyl-1H-pyrazole-5-carboxamide] the IC50 was under 5 nM. Work on `Cn1ncc(-c2nc(C(F)F)cs2)c1C(=O)NC1CCn2cc(-c3cccc(F)c3)nc2C1` (stereo not shown) [Example 2.20, 4-(4-(difluoromethyl)thiazol-2-yl)-N-(2-(3-fluorophenyl)-5,6,7,8-tetrahydroimidazo[1,2-a]pyridin-7-yl)-1-methyl-1H-pyrazole-5-carboxamide] yielded an IC50 of under 5 nM. In the case of `Cc1nc(-c2cnn(C)c2C(=O)NC2CCn3nc(-c4ccc(F)cc4)nc3C2)sc1C1CC1` (stereo not shown) [Example 5.43, 4-(5-cyclopropyl-4-methylthiazol-2-yl)-N-(2-(4-fluorophenyl)-5,6,7,8-tetrahydro-[1,2,4]triazolo[1,5-a]pyridin-7-yl)-1-methyl-1H-pyrazole-5-carboxamide], the IC50 is reported as 5 to 100 nM. Compound `Cc1nnc(-c2cnn(C)c2C(=O)NC2CCn3cc(-c4ccccc4)nc3C2)s1` (stereo not shown) [Example 2.10, 1-methyl-4-(5-methyl-1,3,4-thiadiazol-2-yl)-N-(2-phenyl-5,6,7,8-tetrahydroimidazo[1,2-a]pyridin-7-yl)-1H-pyrazole-5-carboxamide] has an IC50 of under 5 nM. Compound `Cn1ncc(-c2nc(C(F)(F)F)cs2)c1C(=O)NC1CCn2nc(-c3ccccc3)nc2C1` (stereo not shown) [Example 5.9] has an IC50 of 5 to 100 nM. `C[C@H]1CCCN1c1nc2cc(NC(=O)c3c(-c4nc(C(F)F)cs4)cnn3C)ccn2n1` [Example 4.1, (S)-4-(4-(difluoromethyl)thiazol-2-yl)-1-methyl-N-(2-(2-methylpyrrolidin-1-yl)-[1,2,4]triazolo[1,5-a]pyridin-7-yl)-1H-pyrazole-5-carboxamide] was tested, and the IC50 was under 5 nM. In the case of `CC(=O)c1sc(C)nc1-c1cnn(C)c1C(=O)NC1CCn2nc(-c3ccccc3)nc2C1` (stereo not shown) [Example 5.30, 4-(5-acetyl-2-methylthiazol-4-yl)-1-methyl-N-(2-phenyl-5,6,7,8-tetrahydro-[1,2,4]triazolo[1,5-a]pyridin-7-yl)-1H-pyrazole-5-carboxamide], the IC50 is reported as 5 to 100 nM. `Cc1cccnc1-c1cnn(C)c1C(=O)NC1CCn2nc(-c3ccccc3)nc2C1` (stereo not shown) [Example 5.22, 1-methyl-4-(3-methylpyridin-2-yl)-N-(2-phenyl-5,6,7,8-tetrahydro-[1,2,4]triazolo[1,5-a]pyridin-7-yl)-1H-pyrazole-5-carboxamide] showed an IC50 of 5 to 100 nM. For `Cc1nc(-c2cnn(C)c2C(=O)NC2CCn3nc(-c4ccccc4)nc3C2)sc1C` (stereo not shown) [Example 5.4, 4-(4,5-dimethylthiazol-2-yl)-1-methyl-N-(2-phenyl-5,6,7,8-tetrahydro-[1,2,4]triazolo[1,5-a]pyridin-7-yl)-1H-pyrazole-5-carboxamide], the IC50 was under 5 nM. In the case of `Cn1ncc(-c2nc(C#N)cs2)c1C(=O)NC1CCn2nc(-c3ccccc3)nc2C1` (stereo not shown) [Example 5.10, 4-(4-cyanothiazol-2-yl)-1-methyl-N-(2-phenyl-5,6,7,8-tetrahydro-[1,2,4]triazolo[1,5-a]pyridin-7-yl)-1H-pyrazole-5-carboxamide], the IC50 is reported as 5 to 100 nM. For `Cn1ncc(-c2nc(C#N)cs2)c1C(=O)NC1CCn2nc(-c3ccc(F)cc3)nc2C1` (stereo not shown) [Example 5.41, 4-(4-cyanothiazol-2-yl)-N-(2-(4-fluorophenyl)-5,6,7,8-tetrahydro-[1,2,4]triazolo[1,5-a]pyridin-7-yl)-1-methyl-1H-pyrazole-5-carboxamide], the IC50 was 5 to 100 nM. For `Cc1sc(-c2cnn(C)c2C(=O)NC2CCn3cc(-c4cccc(F)c4)nc3C2)nc1C(F)F` (stereo not shown) [Example 2.7, 4-(4-(difluoromethyl)-5-methylthiazol-2-yl)-N-(2-(3-fluorophenyl)-5,6,7,8-tetrahydroimidazo[1,2-a]pyridin-7-yl)-1-methyl-1H-pyrazole-5-carboxamide], the IC50 was under 5 nM. `Cc1ccnc(-c2cnn(C)c2C(=O)Nc2cc3nc(-c4ccccc4)nn3cc2F)c1` [Example 3.5, N-(6-fluoro-2-phenyl-[1,2,4]triazolo[1,5-a]pyridin-7-yl)-1-methyl-4-(4-methylpyridin-2-yl)-1H-pyrazole-5-carboxamide] showed an IC50 of under 5 nM. With `Cc1ccc(-c2cnn(C)c2C(=O)NC2CCn3nc(-c4ccccc4)nc3C2)nc1` (stereo not shown) [Example 5.26, 1-methyl-4-(5-methylpyridin-2-yl)-N-(2-phenyl-5,6,7,8-tetrahydro-[1,2,4]triazolo[1,5-a]pyridin-7-yl)-1H-pyrazole-5-carboxamide] the IC50 was 5 to 100 nM. For `C[C@H]1CCCN1c1nc2cc(NC(=O)c3c(-c4nc(C(F)(F)F)cs4)cnn3C)ccn2n1` [Example 4.10], the IC50 was under 5 nM. Compound `Cn1ncc(-c2nc(C(F)F)c(C3CC3)s2)c1C(=O)NC1CCn2nc(-c3ccccc3)nc2C1` (stereo not shown) [Example 5.8, 4-(5-cyclopropyl-4-(difluoromethyl)thylthiazol-2-yl)-1-methyl-N-(2-phenyl-5,6,7,8-tetrahydro-[1,2,4]triazolo[1,5-a]pyridin-7-yl)-1H-pyrazole-5-carboxamide] has an IC50 of 5 to 100 nM. Work on `Cn1ncc(-c2nc(C(F)F)cs2)c1C(=O)NC1CCn2nc(-c3cccc(F)c3)nc2C1` (stereo not shown) [Example 5.33, 4-(4-(difluoromethyl)thiazol-2-yl)-N-(2-(3-fluorophenyl)-5,6,7,8-tetrahydro-[1,2,4]triazolo[1,5-a]pyridin-7-yl)-1-methyl-1H-pyrazole-5-carboxamide] yielded an IC50 of 5 to 100 nM. In the case of `Cn1ncc(-c2nc(C(F)F)c(Cl)s2)c1C(=O)Nc1ccn2nc(-c3ccccc3)nc2c1` [Example 3.20, 4-(5-chloro-4-(difluoromethyl)thiazol-2-yl)-1-methyl-N-(2-phenyl-[1,2,4]triazolo[1,5-a]pyridin-7-yl)-1H-pyrazole-5-carboxamide], the IC50 is reported as under 5 nM. For `Cc1nc(-c2cnn(C)c2C(=O)NC2CCn3nc(-c4ccccc4)nc3C2)c(C)s1` (stereo not shown) [Example 5.39, 4-(2,5-dimethylthiazol-4-yl)-1-methyl-N-(2-phenyl-5,6,7,8-tetrahydro-[1,2,4]triazolo[1,5-a]pyridin-7-yl)-1H-pyrazole-5-carboxamide], the IC50 was 5 to 100 nM. In the case of `Cn1cnc(-c2cnn(C)c2C(=O)NC2CCn3cc(-c4ccccc4)nc3C2)c1` (stereo not shown) [Example 2.17, 1-methyl-4-(1-methyl-1H-imidazol-4-yl)-N-(2-phenyl-5,6,7,8-tetrahydroimidazo[1,2-a]pyridin-7-yl)-1H-pyrazole-5-carboxamide], the IC50 is reported as 5 to 100 nM. `Cn1ncc(-c2cc(F)ccn2)c1C(=O)Nc1cc2nc(-c3ccccc3)nn2cc1F` [Example 3.4, N-(6-fluoro-2-phenyl-[1,2,4]triazolo[1,5-a]pyridin-7-yl)-4-(4-fluoropyridin-2-yl)-1-methyl-1H-pyrazole-5-carboxamide] was tested, and the IC50 was under 5 nM. In the case of `Cc1ccc(-c2cnn(C)c2C(=O)NC2CCn3cc(-c4ccccc4)nc3C2)nc1` (stereo not shown) [Example 2.21, 1-methyl-4-(5-methylpyridin-2-yl)-N-(2-phenyl-5,6,7,8-tetrahydroimidazo[1,2-a]pyridin-7-yl)-1H-pyrazole-5-carboxamide], the IC50 is reported as 5 to 100 nM. `Cn1ncc(-c2nc(C(F)(F)F)cs2)c1C(=O)NC1CCn2nc(N3CCCC3)nc2C1` (stereo not shown) [Example 5.46, 1-methyl-N-(2-(pyrrolidin-1-yl)-5,6,7,8-tetrahydro-[1,2,4]triazolo[1,5-a]pyridin-7-yl)-4-(4-(trifluoromethyl)thiazol-2-yl)-1H-pyrazole-5-carboxamide] was tested, and the IC50 was under 5 nM. `CCOCCc1sc(-c2cnn(C)c2C(=O)NC2CCn3nc(-c4ccccc4)nc3C2)nc1C` (stereo not shown) [Example 5.11, 4-(5-(2-ethoxyethyl)-4-methylthiazol-2-yl)-1-methyl-N-(2-phenyl-5,6,7,8-tetrahydro-[1,2,4]triazolo[1,5-a]pyridin-7-yl)-1H-pyrazole-5-carboxamide] showed an IC50 of 5 to 100 nM. For `Cc1nnc(-c2cnn(C)c2C(=O)NC2CCn3cc(-c4cc(F)ccc4F)nc3C2)s1` (stereo not shown) [Example 2.18, N-(2-(2,5-difluorophenyl)-5,6,7,8-tetrahydroimidazo[1,2-a]pyridin-7-yl)-1-methyl-4-(5-methyl-1,3,4-thiadiazol-2-yl)-1H-pyrazole-5-carboxamide], the IC50 was 5 to 100 nM. `Cn1ncc(-c2nccs2)c1C(=O)NC1CCn2cc(-c3ccccc3)nc2C1` (stereo not shown) [Example 2.26, 1-methyl-N-(2-phenyl-5,6,7,8-tetrahydroimidazo[1,2-a]pyridin-7-yl)-4-(thiazol-2-yl)-1H-pyrazole-5-carboxamide] was tested, and the IC50 was 5 to 100 nM.
